US20260166021A1, “POLYMORPHIC FORMS OF A SOLUBLE EPOXIDE HYDROLASE INHIBITOR AND FORMULATIONS THEREOF” (EicOsis, LLC, priority 2022, published 2026)

Legend:
[1] = Chemical stability in pH media (HPLC impurities); type: physicochemical
Experimental: For the pH stability analyses, approximately 2-3 mg Form D was incubated in 1.0 mL of aqueous pH 1.0 (0.1 M HCl), pH 6.8 (water adjusted using 0.1 M NaOH and 0.1 M HCl), and pH 10.0 solutions.

[2] = Particle size analysis (Malvern particle sizer, dry method; optical microscopy); type: physicochemical
Experimental: Particle size was first analyzed with optical microscopy.
Particle size was also analyzed with a dry-method using a Malvern 300 particle sizer equipped with a standard energy venturi and utilizing 2.5 bar, 3.0 bar, and 3.5 bar air pressure. […] One possible explanation is that the insufficient energy was provided to break up particle agglomerations.
Based on these findings, particle size analysis was repeated at 2.5, 3.0, and 3.5 bar using a higher energy venturi to ensure the break-up of the potential agglomerates. The detailed particle sizing data using high-energy venturi are summarized in TABLE 26 and in FIGS. 114-119, with FIGS. 114-116 corresponding to 2.5, 3.0, and 3.5 bar analyses of unmilled Form D and FIGS. 117-119 corresponding to 2.5, 3.0, and 3.5 bar analyses of micronized Form D, respectively. While the data remained bimodal, indicating incomplete break-up of particle agglomerates, the D90 of micronized material measured below 6 μm, in closer agreement with the optical analyses.

[3] = milled (micronized), 2.5 bar air pressure, high-energy venturi
[4] = milled (micronized), 2.5 bar air pressure, standard energy venturi
[5] = milled (micronized), 3.0 bar air pressure, high-energy venturi
[6] = milled (micronized), 3.0 bar air pressure, standard energy venturi
[7] = milled (micronized), 3.5 bar air pressure, high-energy venturi
[8] = milled (micronized), 3.5 bar air pressure, standard energy venturi
[9] = unmilled, 2.5 bar air pressure, high-energy venturi
[10] = unmilled, 2.5 bar air pressure, standard energy venturi
[11] = unmilled, 3.0 bar air pressure, high-energy venturi
[12] = unmilled, 3.0 bar air pressure, standard energy venturi
[13] = unmilled, 3.5 bar air pressure, high-energy venturi
[14] = unmilled, 3.5 bar air pressure, standard energy venturi

SMILES: CC[C@H](C)C(=O)N1CCC(NC(=O)Nc2ccc(OC(F)(F)F)c(F)c2)CC1 [Form D, (S)-1-(3-fluoro-4-(trifluoromethoxy)phenyl)-3-(1-(2-methylbutanoyl)piperidin-4-yl)urea]
- Impurity, % (Day 4) ([1]; 50° C., pH 1.0): None Detected
- Impurity, % (Day 7) ([1]; 50° C., pH 1.0): None Detected
- Impurity, % (Day 4) ([1]; 50° C., pH 6.8): None Detected
- Impurity, % (Day 7) ([1]; 50° C., pH 6.8): None Detected
- Impurity, % (Day 4) ([1]; 50° C., pH 10.0): None Detected
- Impurity, % (Day 7) ([1]; 50° C., pH 10.0): None Detected
- Impurity, % (Day 4) ([1]; Room Temperature, pH 1.0): None Detected
- Impurity, % (Day 7) ([1]; Room Temperature, pH 1.0): None Detected
- Impurity, % (Day 4) ([1]; Room Temperature, pH 6.8): None Detected
- Impurity, % (Day 7) ([1]; Room Temperature, pH 6.8): None Detected
- Impurity, % (Day 4) ([1]; Room Temperature, pH 10.0): None Detected
- Impurity, % (Day 7) ([1]; Room Temperature, pH 10.0): None Detected
- impurities after incubation in pH media ([1]; aqueous pH 1.0, pH 6.8, pH 10.0, 4 or 7 days, room temperature or 50° C.): No impurities were detectable
- D10 [2, 3]: 0.46 μm
- D50 [2, 3]: 1.52 μm
- D90 [2, 3]: 5.80 μm
- PSD Modal [2, 3]: Bimodal
- D10 [2, 4]: 0.56 μm
- D50 [2, 4]: 1.85 μm
- D90 [2, 4]: 45.9 μm
- PSD Modal [2, 4]: Bimodal
- D10 [2, 5]: 0.46 μm
- D50 [2, 5]: 1.47 μm
- D90 [2, 5]: 5.42 μm
- PSD Modal [2, 5]: Bimodal
- D10 [2, 6]: 0.55 μm
- D50 [2, 6]: 1.80 μm
- D90 [2, 6]: 47.4 μm
- PSD Modal [2, 6]: Bimodal
- D10 [2, 7]: 0.44 μm
- D50 [2, 7]: 1.51 μm
- D90 [2, 7]: 5.44 μm
- PSD Modal [2, 7]: Bimodal
- D10 [2, 8]: 0.54 μm
- D50 [2, 8]: 1.69 μm
- D90 [2, 8]: 29.4 μm
- PSD Modal [2, 8]: Bimodal
- D10 [2, 9]: 5.24 μm
- D50 [2, 9]: 22.0 μm
- D90 [2, 9]: 55.8 μm
- PSD Modal [2, 9]: Bimodal
- D10 [2, 10]: 8.66 μm
- D50 [2, 10]: 34.5 μm
- D90 [2, 10]: 79.3 μm
- PSD Modal [2, 10]: Unimodal
- D10 [2, 11]: 4.47 μm
- D50 [2, 11]: 20.1 μm
- D90 [2, 11]: 54.8 μm
- PSD Modal [2, 11]: Bimodal
- D10 [2, 12]: 8.26 μm
- D50 [2, 12]: 35.0 μm
- D90 [2, 12]: 91.2 μm
- PSD Modal [2, 12]: Unimodal
- D10 [2, 13]: 2.84 μm
- D50 [2, 13]: 17.2 μm
- D90 [2, 13]: 51.1 μm
- PSD Modal [2, 13]: Bimodal
- D10 [2, 14]: 7.37 μm
- D50 [2, 14]: 33.1 μm
- D90 [2, 14]: 78.6 μm
- PSD Modal [2, 14]: Unimodal
